What is called IC50 is the concentration needed to halve the response being measured. The term Ki denotes a measure of affinity in units of concentration, obtained from inhibition or displacement. Low values mean a stronger hold on the target, high ones a looser hold on the target.

We go through 1 molecule from article PMC5429603, “Discovery and characterization of verinurad, a potent and specific inhibitor of URAT1 for the treatment of hyperuricemia and gout” (Scientific Reports, 2017).

Molecules are shown by their SMILES.

The target in assay [1] is T1, human URAT1 h-V26T (Homo sapiens, UniProt Q96S37, V26T).
T1 construct: expressed in transfected cells; host or cells: HEK-293T
Briefly: URAT1 activity assay, h-V26T. In kind it is cell-based. To be noted: TM1 point mutant, read-out: Verinurad affinity (IC50). The text has this:
(§1) Human URAT1 (GenBank BC053348.1, Homo sapiens SLC22A12), rat URAT1 (NCBI NM_001034943.1, Rattus norvegicus Slc22a12) and human OAT4 (NCBI NM_018484.2, Homo sapiens SLC22A11) genes were purchased from Origene Technologies, Inc. and subcloned into pCMV6/neo using NotI. Where indicated, controls transfections used pCMV6/neo. Mutants were produced by site-directed mutagenesis using the QuikChange Lightning Multi Site-Directed Mutagenesis Kit (Agilent Technologies). […] Mutagenic primer sequences are provided in ref. [15] and mutagenic primer sequences for previously unreported mutants shown in Supplementary Table 1. All constructs used in this study were untagged. Human OAT1 was purchased from Fisher Scientific (catalog # MHS1010–7508183 in pSPORT6, NCBI NM_153276.2, Homo sapiens SLC22A6).
(§2) HEK-293T cells were maintained in DMEM/high glucose/L-glutamine/HEPES supplemented with 1 mM sodium pyruvate (Life Technologies) and 10% FBS (PAA Laboratories) at 37 °C in 5% CO2. […]
(§3) URAT1 and OAT4 activity assays were performed in assay buffer consisting of 25 mM MES pH 5.5 (from a 1 M MES solution [Sigma] adjusted to pH 5.5 with sodium hydroxide), 125 mM sodium gluconate, 4.8 mM potassium gluconate, 1.2 mM monobasic potassium phosphate, 1.2 mM magnesium sulfate, 1.3 mM calcium gluconate and 5.6 mM glucose. […] Each treatment was measured in triplicate.

The target of assay [2] is T2, human URAT1 (Homo sapiens, UniProt Q96S37).
T2 sequence (Q96S37 1-553): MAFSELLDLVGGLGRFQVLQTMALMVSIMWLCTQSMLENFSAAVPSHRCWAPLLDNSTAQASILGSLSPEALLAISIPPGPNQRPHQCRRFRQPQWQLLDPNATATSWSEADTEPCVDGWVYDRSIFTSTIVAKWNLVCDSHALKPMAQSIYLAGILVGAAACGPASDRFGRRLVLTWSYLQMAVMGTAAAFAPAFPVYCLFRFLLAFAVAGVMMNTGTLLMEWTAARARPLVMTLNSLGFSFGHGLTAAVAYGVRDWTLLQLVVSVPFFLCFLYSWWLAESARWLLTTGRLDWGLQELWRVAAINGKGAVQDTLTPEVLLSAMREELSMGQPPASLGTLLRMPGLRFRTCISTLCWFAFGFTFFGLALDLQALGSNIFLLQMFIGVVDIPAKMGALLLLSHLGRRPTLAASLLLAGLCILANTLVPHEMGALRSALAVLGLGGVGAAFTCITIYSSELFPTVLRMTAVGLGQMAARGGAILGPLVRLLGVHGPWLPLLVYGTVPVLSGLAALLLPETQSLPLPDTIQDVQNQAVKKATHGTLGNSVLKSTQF
Nature of the assay: URAT1 binding assay with 3H-verinurad, human URAT1 membranes.
Method: Membranes were prepared from cells transfected on the previous day with URAT1 expression constructs. Cells (5–10 × 10^8) were harvested in 1 ml ice-cold binding buffer (25 mM HEPES pH 7.3, 125 mM sodium gluconate) containing complete, EDTA-free protease inhibitor cocktail (Sigma). Cells were lysed with 100 strokes in a 2 ml dounce homogenizer using a tight-fitting “B” stem. Lysates were transferred to 1.5 mL Eppendorf tubes and centrifuged at 250 rcf for 5 minutes at 2 °C, and supernatants were transferred to fresh tubes and centrifuged again at 18,000 rcf for 20 minutes at 2 °C. The pellets (membrane fractions) were resuspended in 1 ml of ice-cold binding buffer containing protease inhibitors and frozen at −80 °C. Protein was measured using the Bio-Rad protein assay dye reagent concentrate.
Samples were then rapidly filtered through 25 mm glass fiber/1.2 µM PES 96-well filter plates (Corning FiltrEX 3510), and washed once with 200 µl ice-cold binding buffer. The plates were then subjected to scintillation counting. All samples were assayed in triplicate.
GraphPad Prism software was used for non-linear regression and statistical analyses. […] For kinetic measurements (K m and B max values), the “one site – specific binding” equation was used, after subtracting transport or binding measurements from control transfected cells. Statistical significance was assessed using Student’s unpaired t-tests.

Assay [3] addresses T2, human URAT1. Briefly: URAT1 activity assay (14C-uric acid transport), human URAT1. In kind it is cell-based. On the set-up: host or cells: HEK-293T. Here is the method: HEK-293T cells were maintained in DMEM/high glucose/L-glutamine/HEPES supplemented with 1 mM sodium pyruvate (Life Technologies) and 10% FBS (PAA Laboratories) at 37 °C in 5% CO2. To express URAT1, OAT4 or OAT1, plasmids were reverse transfected into HEK-293T cells. DNA (10 µg) was mixed with 30 µl of DreamFect Gold (Boca Scientific) in 2 ml OptiMem (Life Technologies). After 20 minutes, 18 ml of media containing 2 × 10^7 cells in suspension was added and mixed, and 200 µl per well were plated onto white clear-bottomed poly-D-lysine coated 96-well plates (BD Biosciences). The cells were assayed the following day.
URAT1 and OAT4 activity assays were performed in assay buffer consisting of 25 mM MES pH 5.5 (from a 1 M MES solution [Sigma] adjusted to pH 5.5 with sodium hydroxide), 125 mM sodium gluconate, 4.8 mM potassium gluconate, 1.2 mM monobasic potassium phosphate, 1.2 mM magnesium sulfate, 1.3 mM calcium gluconate and 5.6 mM glucose. URAT1 inhibitors were serially diluted into assay buffer and added to the cells for 5 minutes prior to addition of substrate. URAT1-expressing cells were incubated with 100 µM ^14C-uric acid for 10 minutes and OAT4-expressing cells were incubated with 20 µM carboxyfluorescein (Life Technologies, Inc.) for 5 minutes. Cells were then washed three times in 25 mM MES pH 5.5/125 mM sodium gluconate, and solubilized in Ultima Gold (Perkin Elmer) prior to liquid scintillation counting. Each treatment was measured in triplicate.

The target of assay [4] is T3, human URAT1 h-V18L (Homo sapiens, UniProt Q96S37, V18L).
T3 construct: expressed in transfected cells; host or cells: HEK-293T
Nature of the assay: URAT1 activity assay, h-V18L. In kind it is cell-based. To be noted: TM1 point mutant, read-out: Verinurad affinity (IC50).
Excerpt: as §1, §2, §3

Assay [5] has as its target T4, rat URAT1-Y365F (Rattus norvegicus, UniProt Q3ZAV1, Y365F).
T4 construct: expressed in transfected cells; host or cells: HEK-293T
T4 sequence (Q3ZAV1 1-553 Y365F): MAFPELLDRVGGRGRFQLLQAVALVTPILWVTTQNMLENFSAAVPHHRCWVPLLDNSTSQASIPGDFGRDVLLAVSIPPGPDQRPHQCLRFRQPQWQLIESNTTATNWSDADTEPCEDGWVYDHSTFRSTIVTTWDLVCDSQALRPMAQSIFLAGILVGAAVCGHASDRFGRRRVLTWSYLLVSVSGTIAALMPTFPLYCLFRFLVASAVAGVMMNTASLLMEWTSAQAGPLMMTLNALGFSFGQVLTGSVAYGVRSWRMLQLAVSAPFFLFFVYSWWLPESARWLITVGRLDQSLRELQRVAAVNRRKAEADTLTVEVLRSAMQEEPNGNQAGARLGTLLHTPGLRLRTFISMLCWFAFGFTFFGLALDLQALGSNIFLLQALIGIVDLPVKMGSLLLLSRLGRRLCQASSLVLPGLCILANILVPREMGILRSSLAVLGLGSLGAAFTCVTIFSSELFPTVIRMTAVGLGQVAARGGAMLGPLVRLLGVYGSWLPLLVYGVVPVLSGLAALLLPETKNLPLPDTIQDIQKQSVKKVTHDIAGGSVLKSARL
Nature of the assay: URAT1 activity assay, r-Y365F. In kind it is cell-based.
Excerpt: as §1, §2, §3

T3 sequence (Q96S37 whole entry V18L): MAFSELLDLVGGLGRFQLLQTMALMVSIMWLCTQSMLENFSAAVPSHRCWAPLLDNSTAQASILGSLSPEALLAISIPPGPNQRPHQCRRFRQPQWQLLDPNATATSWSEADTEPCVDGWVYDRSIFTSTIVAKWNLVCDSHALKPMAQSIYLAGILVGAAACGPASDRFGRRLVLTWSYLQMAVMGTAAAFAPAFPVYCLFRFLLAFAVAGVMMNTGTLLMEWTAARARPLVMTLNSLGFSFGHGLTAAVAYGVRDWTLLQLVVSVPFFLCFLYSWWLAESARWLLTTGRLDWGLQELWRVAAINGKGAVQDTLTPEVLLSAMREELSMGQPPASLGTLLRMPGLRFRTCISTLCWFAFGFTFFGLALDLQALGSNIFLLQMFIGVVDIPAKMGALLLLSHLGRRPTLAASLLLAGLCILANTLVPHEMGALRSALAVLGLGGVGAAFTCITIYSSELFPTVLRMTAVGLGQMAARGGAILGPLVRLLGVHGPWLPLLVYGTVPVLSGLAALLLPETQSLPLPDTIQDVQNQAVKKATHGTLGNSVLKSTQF
T1 sequence (Q96S37 whole entry V26T): as the sequence (Q96S37 whole entry V18L) above, with L18V, V26T counted along it

On to `CC(C)(Sc1ccncc1-c1ccc(C#N)c2ccccc12)C(=O)O` [Verinurad, 2-((3-(4-cyanonaphthalen-1-yl)pyrindin-4-yl)thio)-2-methylpropanoic acid], for which the IC50 in assay [1] came to 14 ± 1.5 nM; in assay [2], 7.8 nM; in assay [3] (human URAT1 wild type in HEK-293T, 100 µM 14C-uric acid, pH 5.5, read-out: IC50, inhibition of transport activity) it was 25 ± 3.6 nM; in assay [3] (human URAT1 wild type, read-out: IC50, inhibition of transport activity of human URAT1), 25 nM; in assay [4], 26 ± 15 nM; in assay [5] (TM7 point mutant, read-out: Verinurad affinity (IC50)), 2900 ± 1300 nM. This molecule also yielded a Ki in assay [2] of 6.9 nM. The “mode of inhibition of 3H-verinurad binding” value in assay [2] (human URAT1 membranes) is recorded as “competitive inhibition”. Also, in assay [3] (URAT1 vs other transporters), the “fold potency for URAT1 compared to other transporters” value is “greater than 100 fold”. In addition, in assay [5], the “fold higher affinity compared to rat URAT1” value came to 14 fold.
